{"source": "patent US20250276127A1", "about": "“THERAPEUTIC METHODS AND DEVICES” (NORWEGIAN UNIVERSITY OF SCIENCE AND TECHNOLOGY (NTNU), priority 2021, published 2025)", "type_in_all_cases": "in vivo, human", "key": {"blood flow in the skin": {"tested_on": "blood flow in the skin", "experiment": "Local skin blood flow by laser Doppler after subcutaneous injection", "description": "Likewise, the compound with glucagon activity may be administered in an amount which is effective to achieve a local vasodilatory effect, or an effect of increasing local blood flow at the site of its administration. Vasodilatory activity may be assessed, or determined, by measuring blood flow by a laser Doppler method, at an administration site on or in a human or non-human animal subject after administration of the compound. For example, the compound may be injected SC and blood flow just below the skin surface may be determined at the injection site. Such a method is described in Example 1. However, for the methods and uses herein where the compound is used for its effect in the delivery of a therapeutically active agent (e.g. insulin) or in conjunction with the operation of a sensor (e.g. glucose sensor), it is not necessary, and indeed it may be undesirable, for the compound to exert its usual therapeutic effect of increasing blood glucose, or counteracting an episode of hypoglycaemia. The amount, or dose, administered may thus be less, and indeed typically will be less, than a dose which is administered, or typically used, to treat hypoglycaemia. Doses for the compound are discussed in more detail below.\nAn experiment was performed on 2 young healthy adult human volunteers. The effect of subcutaneous (hereinafter, SC) injections on blood flow in the skin were tested 6 times in the 2 subjects (4 tests in a subject and 2 tests in a subject). The glucagon was administered by SC injection of 0.1 ml of 1 mg/ml glucagon (i.e. an injection containing 0.1 mg of glucagon) to sites on the lateral side of both upper arms of the subjects. Blood flow was measured on the skin surface at the site of administration by laser Doppler technology. As a control the same volume of physiological saline (0.9%) was injected as a placebo at the same sites.\nThis effect was further investigated in a similar experiment with varying doses of glucagon. Again, the same 2 subjects were used, and SC injections of glucagon or placebo were given 6 times (4 tests in a subject and 2 tests in a subject). The glucagon was administered to sites on the lateral sides of both upper arms in amounts of 0.1 mg, 0.015 mg and 0.01 mg (0.1 ml of glucagon at concentrations of 0.1 mg/ml, 0.015 mg/ml and 0.01 mg/ml, respectively). Blood flow was measured on the skin surface at the site of administration by laser Doppler technology. As a control the same volume of physiological saline (0.9%) was injected as a placebo at the same sites.\nFurther experiments were conducted to investigate the effect on local blood flow of subcutaneous injections of glucagon in the abdomen. Again, 2 subjects were used, and SC injections of glucagon or placebo were given 6 times (3 tests in a subject and 3 tests in a subject). The glucagon was administered by SC injection of 0.1 ml of 1 mg/ml glucagon (i.e. an injection containing 0.1 mg of glucagon) to sites on both sides of the abdomen of the subjects. Blood flow was measured on the skin surface at the site of administration by laser Doppler technology. As a control the same volume of physiological saline (0.9%) was injected as a placebo at the same sites.\nThis effect was further investigated in a similar experiment with varying doses of glucagon. Again, 2 subjects were used, and SC injections of glucagon or placebo were given 6 times (3 tests in a subject and 3 tests in a subject). The glucagon was administered to sites on both sides of the abdomen in amounts of 0.1 mg, 0.05 mg and 0.015 mg (0.1 ml of glucagon at concentrations of 0.1 mg/ml, 0.05 mg/ml and 0.015 mg/ml, respectively). Blood flow was measured on the skin surface at the site of administration by laser Doppler technology. As a control the same volume of physiological saline (0.9%) was injected as a placebo at the same sites. […]"}, "[1]": {"tested_on": "glucose levels detected by CGM", "experiment": "CGM (Dexcom G6) glucose sensing at meals with injection at the sensor site", "details": "FIG. 26", "protocol": "This effect was further investigated in a similar experiment to investigate the effect of glucagon on the performance of CGMs. Again, 2 subjects were used showing data from 12 meals in a non-diabetic […] and 11 meals in a non-diabetic […] collected with Dexcom G6 CGMs. The subjects wore two CGMs placed symmetrically on the lateral side of each overarm. 1-3 minutes before the start of ingesting the meal 0.1 ml of glucagon (1 mg/ml) was injected at the site of one CGM and 0.1 ml of placebo (saline (0.9%) on the contralateral site of CGM. Before each meal, the site of glucagon delivery was decided by a new randomization."}, "local blood flow [2]": {"tested_on": "local blood flow", "experiment": "Impact of injection technique (speed) on local blood flow, laser Doppler", "details": "abdomen", "protocol": "To observe the impact of injection technique, and particularly speed of injection, on the effect induced by subcutaneous injection of glucagon, an experiment was conducted to compare 2 different injection techniques; one where the injection lasted 1-3 seconds (technique 1), and one where the injection lasted at least 10 seconds (technique 2). 6 injections were given with technique 1 and 4 injections were given with technique 2. In each case, 0.1 mg of glucagon (in a 0.1 ml injection) was injected subcutaneously into the abdomen of the subjects. For each technique, half of the injections were given to a subject and half to a subject. Blood flow was measured on the skin surface at the site of administration by laser Doppler technology.\nIn addition, in FIG. 21 the same results are shown together with the results of placebo injections of 0.1 ml of 0.9% saline using the same 2 techniques. For technique 1, 6 placebo injections were given, and for technique 2, 2 placebo injections were given. Again, half of the injections with each technique were done in a subject, and half were done in a subject."}, "local blood flow [3]": {"tested_on": "local blood flow", "experiment": "Impact of laser Doppler probe placement on measured local blood flow", "details": "0.015 mg SC, upper arms", "protocol": "The impact of the placement of the laser Doppler probe on the measured effect of glucagon injections on local blood flow was investigated by giving injections at multiple sites with varying distances from the probe. The experiment involved the subcutaneous injection of 0.015 mg of glucagon (in 0.1 ml) or 0.1 ml of 0.9% saline as a control at sites on the lateral sides of the upper arms of the subjects. The injections were given either under the probe, 1.6 cm from the probe centre, 3 cm from the probe centre, or 5 cm from the probe centre. In each case, 6 injections were given, except for 1.6 cm from the probe centre where only 4 saline injections were given. In all cases, half of the injections were given to a subject and half to a subject, except for under the probe, where 4 tests were done on the subject and 2 on the subject. Blood flow was measured on the skin surface by laser Doppler technology."}}, "data": [{"substance": "glucagon", "values": [{"measurement": "increase in local blood flow relative to higher doses", "setting": "blood flow in the skin; 0.01 mg SC, lateral upper arms, FIG. 15", "result": "similar, although less pronounced"}, {"measurement": "effect on local blood flow relative to control injection", "setting": "blood flow in the skin; 0.01 mg SC, thighs, FIG. 23/24", "result": "did not appear to have a significant effect on local blood flow"}, {"measurement": "effect on local blood flow relative to control injection", "setting": "blood flow in the skin; 0.015 mg SC, abdomen, FIG. 18/19", "result": "did not appear to have a significant effect on local blood flow"}, {"measurement": "increase in local blood flow", "setting": "blood flow in the skin; 0.015 mg SC, lateral upper arms, average of 6 tests, FIG. 15", "result": "400-450 % of the baseline reading"}, {"measurement": "increase in local blood flow among doses", "setting": "blood flow in the skin; 0.03 mg SC, thighs, FIG. 23/24", "result": "biggest increase in local blood flow"}, {"measurement": "initial increase in local blood flow", "setting": "blood flow in the skin; 0.05 mg SC, abdomen, FIG. 18/19", "result": "did not result in a significant increase in local blood flow initially"}, {"measurement": "local blood flow versus control injection after 15 minutes", "setting": "blood flow in the skin; 0.05 mg SC, abdomen, after 15 minutes", "result": "higher than that observed at the same time after the control injection"}, {"measurement": "persistence of increase in local blood flow versus control", "setting": "blood flow in the skin; 0.05 mg SC, thighs, FIG. 22", "result": "more persistent than that observed following administration of the control"}, {"measurement": "time after which blood flow values of glucagon and placebo were approximately equal", "setting": "blood flow in the skin; 0.05 mg SC, thighs, FIG. 22", "result": "around 30 minutes"}, {"measurement": "increase in local blood flow versus saline control", "setting": "blood flow in the skin; 0.05 mg SC, thighs, FIG. 23/24", "result": "slightly larger than that observed following administration of the saline control"}, {"measurement": "persistence of increase in local blood flow versus saline control", "setting": "blood flow in the skin; 0.05 mg SC, thighs, FIG. 23/24", "result": "significantly more persistent"}, {"measurement": "increase in local blood flow versus saline", "setting": "blood flow in the skin; 0.05 mg SC, thighs, average of 7 tests, FIG. 22", "result": "slightly greater than that observed when saline was administered"}, {"measurement": "persistence of increase in local blood flow versus control", "setting": "blood flow in the skin; 0.1 mg SC, abdomen, FIG. 17", "result": "more persistent than that observed following administration of the control"}, {"measurement": "time after which blood flow values of glucagon and placebo were approximately equal", "setting": "blood flow in the skin; 0.1 mg SC, abdomen, FIG. 17", "result": "around 30 minutes"}, {"measurement": "initial increase in local blood flow versus control", "setting": "blood flow in the skin; 0.1 mg SC, abdomen, FIG. 18/19", "result": "greater than that seen following the administration of the same control"}, {"measurement": "increase in local blood flow versus saline", "setting": "blood flow in the skin; 0.1 mg SC, abdomen, average of 6 tests, FIG. 17", "result": "slightly greater than that observed when saline was administered"}, {"measurement": "blood flow after returning to \"normal\" versus before injection", "setting": "blood flow in the skin; 0.1 mg SC, lateral upper arms, FIG. 14", "result": "increased compared to before the glucagon injection"}, {"measurement": "effect on local blood flow (flow increase)", "setting": "blood flow in the skin; 0.1 mg SC, lateral upper arms, average of 6 tests, FIG. 14", "result": "several hundred percent"}, {"measurement": "increase in local blood flow", "setting": "blood flow in the skin; 0.1 mg SC, lateral upper arms, average of 6 tests, FIG. 15", "result": "400-450 % of the baseline reading"}, {"measurement": "period over which the vasodilatory effect can be seen", "setting": "blood flow in the skin; SC, upper arms, FIG. 15", "result": "35 to 40", "unit": "min"}, {"measurement": "increase of blood flow at the site of administration", "setting": "blood flow in the skin; administered sub-cutaneously, small blood vessels in the skin (summary statement)", "result": "several hundred percent"}, {"measurement": "persistence of increase in blood flow", "setting": "blood flow in the skin; all doses (0.1, 0.015, 0.01 mg) SC, upper arms, not seen with placebo", "result": "found to persist even once the value had stabilised"}, {"measurement": "dose at which a vasodilatory effect has been observed", "setting": "blood flow in the skin; in certain body regions, in some subjects", "result": "< 0.01", "unit": "mg"}, {"measurement": "change in local blood flow on administration", "setting": "blood flow in the skin; summary of the Examples", "result": "immediate and large increase in local blood flow"}, {"measurement": "level to which blood flow returns", "setting": "blood flow in the skin; summary of the Examples, maintained over a prolonged period", "result": "higher than the baseline level before glucagon administration"}, {"measurement": "glucose levels detected by CGM after meal versus placebo site", "setting": "[1]; 0.1 ml of 1 mg/ml injected at CGM site 1-3 minutes before meal, overarm, 23 meals", "result": "faster and larger increase in glucose levels detected compared to placebo"}, {"measurement": "time at which the effect on CGM glucose can be clearly seen", "setting": "[1]; in one of the subjects", "result": 10, "unit": "min"}, {"measurement": "persistence of effect of the \"slow\" injection on local blood flow", "setting": "local blood flow [2]; 0.1 mg SC, technique 2, versus fast glucagon and placebo injections", "result": "more persistent than the effects of any of the other injections"}, {"measurement": "increase in local blood flow, technique 2 (injection at least 10 seconds) versus technique 1 (1-3 seconds)", "setting": "local blood flow [2]; 0.1 mg in 0.1 ml SC, FIG. 20/21", "result": "significantly larger increase in local blood flow"}, {"measurement": "effect on blood flow versus placebo", "setting": "local blood flow [3]; injection 1.6 cm or 3 cm from probe centre", "result": "larger than placebo"}, {"measurement": "effect on blood flow versus placebo", "setting": "local blood flow [3]; injection 5 cm from probe centre", "result": "except for injection 5 cm from the probe the effect was larger than placebo"}, {"measurement": "increase in local blood flow, placebo subtracted", "setting": "local blood flow [3]; injection at greater distances (1.6, 3 or 5 cm from probe centre)", "result": "less significant"}, {"measurement": "increase in local blood flow, placebo subtracted", "setting": "local blood flow [3]; injection directly under the probe, FIG. 25", "result": "largest increase in local blood flow"}]}]}
